How the values were obtained:
Experiment in all cases: relative viability (nuclei count vs DMSO), 5 days (fraction); higher = more cells survive
LOU-NH91 = system: LOU-NH91
Summary of the method: (§1)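 Lung cancer cell lines were pin-tool dosed in 1536-well plates on the day after seeding, with either a lone drug or a fixed anchor-drug dose plus five library-drug doses (not always all listed) in √10 steps. Nuclei were counted on 4× images after 5 days. Relative viability is the ratio of treated-well to vehicle-well nuclei counts, with each value a median of duplicate plates.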

HOP-62 = system: HOP-62
Summary of the method: as §1

BEN = system: BEN
Summary of the method: as §1

NCI-H647 = system: NCI-H647
Summary of the method: as §1

NCI-H1993 = system: NCI-H1993
Summary of the method: as §1

NCI-H1437 = system: NCI-H1437
Summary of the method: as §1

NCI-H441 = system: NCI-H441
Summary of the method: as §1

NCI-H2170 = system: NCI-H2170
Summary of the method: as §1

PC-14 = system: PC-14
Summary of the method: as §1

NCI-H1666 = system: NCI-H1666
Summary of the method: as §1

NCI-H1355 = system: NCI-H1355
Summary of the method: as §1

ChaGo-K-1 = system: ChaGo-K-1
Summary of the method: as §1

NCI-H2126 = system: NCI-H2126
Summary of the method: as §1

EKVX = system: EKVX
Summary of the method: as §1

LK-2 = system: LK-2
Summary of the method: as §1

LXF-289 = system: LXF-289
Summary of the method: as §1

NCI-H727 = system: NCI-H727
Summary of the method: as §1

RERF-LC-KJ = system: RERF-LC-KJ
Summary of the method: as §1

SK-MES-1 = system: SK-MES-1
Summary of the method: as §1

NCI-H1944 = system: NCI-H1944
Summary of the method: as §1

HCC-827 = system: HCC-827
Summary of the method: as §1

CCNC(=O)c1noc(-c2cc(C(C)C)c(O)cc2O)c1-c1ccc(CN2CCOCC2)cc1 [Luminespib] + CC1(C)CCC(c2ccc(Cl)cc2)=C(CN2CCN(c3ccc(C(=O)NS(=O)(=O)c4ccc(N[C@H](CCN5CCOCC5)CSc5ccccc5)c(S(=O)(=O)C(F)(F)F)c4)cc3)CC2)C1 [Navitoclax] (partner 0.5 µM)
relative viability (LOU-NH91; first compound 0.002 µM): 0.692
relative viability (LOU-NH91; first compound 0.006325 µM): 0.707
relative viability (LOU-NH91; first compound 0.02 µM): 0.49
relative viability (LOU-NH91; first compound 0.06325 µM): 0.257
relative viability (LOU-NH91; first compound 0.2 µM): 0.256
relative viability (HOP-62; first compound 0.002 µM): 1
relative viability (HOP-62; first compound 0.006325 µM): 1.07
relative viability (HOP-62; first compound 0.02 µM): 1.07
relative viability (HOP-62; first compound 0.06325 µM): 0.909
relative viability (HOP-62; first compound 0.2 µM): 0.103
relative viability (BEN; first compound 0.002 µM): 0.0714
relative viability (BEN; first compound 0.006325 µM): 0.0602
relative viability (BEN; first compound 0.02 µM): 0.0673
relative viability (BEN; first compound 0.06325 µM): 0.0655
relative viability (BEN; first compound 0.2 µM): 0.0846
relative viability (NCI-H647; first compound 0.002 µM): 1.23
relative viability (NCI-H647; first compound 0.006325 µM): 1.06
relative viability (NCI-H647; first compound 0.02 µM): 1.18
relative viability (NCI-H647; first compound 0.06325 µM): 0.0943
relative viability (NCI-H647; first compound 0.2 µM): 0.0973
relative viability (NCI-H1993; first compound 0.002 µM): 0.937
relative viability (NCI-H1993; first compound 0.006325 µM): 1.02
relative viability (NCI-H1993; first compound 0.02 µM): 0.762
relative viability (NCI-H1993; first compound 0.06325 µM): 0.644
relative viability (NCI-H1993; first compound 0.2 µM): 0.466
relative viability (NCI-H1437; first compound 0.002 µM): 1.06
relative viability (NCI-H1437; first compound 0.006325 µM): 1.07
relative viability (NCI-H1437; first compound 0.02 µM): 1.16
relative viability (NCI-H1437; first compound 0.06325 µM): 0.318
relative viability (NCI-H1437; first compound 0.2 µM): 0.128
relative viability (NCI-H441; first compound 0.002 µM): 0.714
relative viability (NCI-H441; first compound 0.006325 µM): 0.648
relative viability (NCI-H441; first compound 0.02 µM): 0.626
relative viability (NCI-H441; first compound 0.06325 µM): 0.121
relative viability (NCI-H441; first compound 0.2 µM): 0.161
relative viability (NCI-H2170; first compound 0.002 µM): 0.646
relative viability (NCI-H2170; first compound 0.006325 µM): 0.596
relative viability (NCI-H2170; first compound 0.02 µM): 0.293
relative viability (NCI-H2170; first compound 0.06325 µM): 0.581
relative viability (NCI-H2170; first compound 0.2 µM): 0.451
relative viability (PC-14; first compound 0.002 µM): 0.996
relative viability (PC-14; first compound 0.006325 µM): 0.945
relative viability (PC-14; first compound 0.02 µM): 1.17
relative viability (PC-14; first compound 0.06325 µM): 0.0977
relative viability (PC-14; first compound 0.2 µM): 0.128
relative viability (NCI-H1666; first compound 0.002 µM): 0.807
relative viability (NCI-H1666; first compound 0.006325 µM): 0.97
relative viability (NCI-H1666; first compound 0.02 µM): 1.29
relative viability (NCI-H1666; first compound 0.06325 µM): 0.913
relative viability (NCI-H1666; first compound 0.2 µM): 0.554
relative viability (NCI-H1355; first compound 0.002 µM): 0.983
relative viability (NCI-H1355; first compound 0.006325 µM): 0.896
relative viability (NCI-H1355; first compound 0.02 µM): 0.473
relative viability (NCI-H1355; first compound 0.06325 µM): 0.987
relative viability (NCI-H1355; first compound 0.2 µM): 0.968
relative viability (ChaGo-K-1; first compound 0.002 µM): 1.1
relative viability (ChaGo-K-1; first compound 0.02 µM): 0.932
relative viability (ChaGo-K-1; first compound 0.06325 µM): 0.41
relative viability (ChaGo-K-1; first compound 0.2 µM): 0.311
relative viability (NCI-H2126; first compound 0.002 µM): 0.852
relative viability (NCI-H2126; first compound 0.006325 µM): 0.777
relative viability (NCI-H2126; first compound 0.02 µM): 0.506
relative viability (NCI-H2126; first compound 0.06325 µM): 0.864
relative viability (NCI-H2126; first compound 0.2 µM): 0.874
relative viability (EKVX; first compound 0.002 µM): 0.922
relative viability (EKVX; first compound 0.006325 µM): 0.801
relative viability (EKVX; first compound 0.02 µM): 0.677
relative viability (EKVX; first compound 0.06325 µM): 0.518
relative viability (EKVX; first compound 0.2 µM): 0.0817
relative viability (LK-2; first compound 0.002 µM): 0.826
relative viability (LK-2; first compound 0.006325 µM): 0.936
relative viability (LK-2; first compound 0.02 µM): 0.571
relative viability (LK-2; first compound 0.06325 µM): 0.163
relative viability (LK-2; first compound 0.2 µM): 0.159
relative viability (LXF-289; first compound 0.002 µM): 0.951
relative viability (LXF-289; first compound 0.006325 µM): 0.937
relative viability (LXF-289; first compound 0.02 µM): 1.05
relative viability (LXF-289; first compound 0.06325 µM): 0.851
relative viability (LXF-289; first compound 0.2 µM): 0.302
relative viability (NCI-H727; first compound 0.002 µM): 0.43
relative viability (NCI-H727; first compound 0.006325 µM): 0.449
relative viability (NCI-H727; first compound 0.02 µM): 0.408
relative viability (NCI-H727; first compound 0.06325 µM): 0.218
relative viability (NCI-H727; first compound 0.2 µM): 0.27
relative viability (RERF-LC-KJ; first compound 0.002 µM): 0.987
relative viability (RERF-LC-KJ; first compound 0.006325 µM): 1.11
relative viability (RERF-LC-KJ; first compound 0.02 µM): 1.07
relative viability (RERF-LC-KJ; first compound 0.06325 µM): 0.221
relative viability (RERF-LC-KJ; first compound 0.2 µM): 0.22
relative viability (SK-MES-1; first compound 0.002 µM): 1.27
relative viability (SK-MES-1; first compound 0.006325 µM): 1.24
relative viability (SK-MES-1; first compound 0.02 µM): 1.28
relative viability (SK-MES-1; first compound 0.06325 µM): 0.149
relative viability (SK-MES-1; first compound 0.2 µM): 0.131
relative viability (NCI-H1944; first compound 0.002 µM): 1.06
relative viability (NCI-H1944; first compound 0.006325 µM): 0.99
relative viability (NCI-H1944; first compound 0.02 µM): 0.708
relative viability (NCI-H1944; first compound 0.06325 µM): 0.939
relative viability (NCI-H1944; first compound 0.2 µM): 0.973
relative viability (HCC-827; first compound 0.002 µM): 1.07
relative viability (HCC-827; first compound 0.006325 µM): 1.02
relative viability (HCC-827; first compound 0.02 µM): 1.04
relative viability (HCC-827; first compound 0.06325 µM): 1.01
relative viability (HCC-827; first compound 0.2 µM): 1

— the supplement of paper PMC10307832
